Source: patent US20210253595A1, “2-Aminopyrimidine Derivative and Preparation Method and Use Thereof” (Etern Biopharma (Shanghai) Co., Ltd., priority 2018, published 2021)

Experiments:
IDH1 R132H = IDH1 R132H (Homo sapiens, UniProt O75874, R132H); assay: Effect on IDH1 R132H enzyme activity (NADPH consumption, diaphorase/resazurin fluorescence); type: biochemical; conditions: 100 ng IDH1 R132H, α-KG 1 mM, NADPH 20 μM, 60 min preincubation
Procedure: (§1) Test method: The enzyme activity of IDH1 converting α-KG to 2HG was measured by the consumption of NADPH. After the enzymatic reaction finished, the amount of residual NADPH can be reflected by fluorescence signal generated by the addition of catalytically excessive diphhorase and reazurin.
50 μL mixed liquid of substrate α-KG and NADPH (final concentration of substrate α-KG was 1 mM, final concentration of NADPH was 20 μM), and the mixture was incubated in dark for 60 min at room temperature. Detection reaction: 50 μL 1×detection buffer diluted 0.01 unit diabase and 30 μM resazurin were added into each well, and the mixture was incubated in dark at room temperature for 10 min. […] IC50 value was calculated by GraphPad Prism software.

[1] = tested on: 2HG of fibrosarcoma cell line HT1080 expressing IDH1 mutant IDH1-R132C; assay: Inhibition of 2HG of fibrosarcoma cell line HT1080; type: cell-based; conditions: Homo sapiens, HT-1080; HT1080 cells, 48 hours with compound, 2HG in cell supernatant; read-out: HT1080 2HG inhibitory IC50
Procedure: In this experiment, the inhibitory activity of the compound of the disclosure on the concentration level of 2HG of the fibrosarcoma cell line HT1080 was determined by the following method.
The cells were digested with trypsin and inoculated into a 24 well cell culture plate with a density of 10000 cells/well. The cells were cultured in a 5% CO2 cell incubator at 37° C. After overnight culture, the test compound was added to the cells. The final concentration of DMSO was 0.1%, and DMSO was used as control. The plate was then placed in a cell incubator and cultured for 48 hours.
Detection of 2HG: 2-HG was measured by PicoProbe™ D-2-Hydroxyglutarate (D2HG) Assay Kit of BioVision. 500 uL cell supernatant was taken from each well and added to a 10 kD centrifuge column, 12000 g, and centrifuged for 10 minutes to remove the effect of enzyme activity. […] IC50 value was calculated by GraphPad Prism software.
The inhibition rate of the sample was obtained by the following formula: […]
IC50 value was calculated by GraphPad Prism software.

IDH1 R132C = IDH1 R132C (Homo sapiens, UniProt O75874, R132C); assay: Effect on IDH1 R132C enzyme activity (NADPH consumption, diaphorase/resazurin fluorescence); type: biochemical; conditions: 80 ng IDH1 R132C, α-KG 2 mM, NADPH 20 μM, 60 min preincubation
Procedure: as §1
50 μL mixed liquid of substrate α-KG and NADPH (final concentration of substrate α-KG was 2 mM, final concentration of NADPH was 20 μM), and the plate was incubated in dark for 60 min at room temperature. Detection reaction: 50 μL 1×detection buffer diluted 0.01 unit diabase and 30 μM resazurin were added into each well, and the mixture was incubated in dark at room temperature for 10 min. […] IC50 value was calculated by GraphPad Prism software.

Chain of IDH1 R132H (O75874 whole entry R132H): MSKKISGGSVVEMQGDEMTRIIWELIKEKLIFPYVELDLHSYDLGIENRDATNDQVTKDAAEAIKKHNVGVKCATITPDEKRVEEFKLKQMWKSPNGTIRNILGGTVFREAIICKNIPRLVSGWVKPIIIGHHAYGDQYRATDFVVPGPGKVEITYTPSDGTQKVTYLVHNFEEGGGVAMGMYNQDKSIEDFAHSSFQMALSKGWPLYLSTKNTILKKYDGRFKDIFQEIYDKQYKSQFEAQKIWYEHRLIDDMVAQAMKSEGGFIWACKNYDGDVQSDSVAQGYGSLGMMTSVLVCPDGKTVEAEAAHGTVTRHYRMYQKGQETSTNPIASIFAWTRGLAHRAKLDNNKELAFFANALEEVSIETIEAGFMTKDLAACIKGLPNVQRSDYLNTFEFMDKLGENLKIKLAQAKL
Chain of IDH1 R132C (O75874 whole entry R132C): as the sequence (O75874 whole entry R132H) above, with H132C counted along it

Row | Compound | IC50 (IDH1 R132H) [nM] | IC50 [1] [nM] | IC50 (IDH1 R132C) [nM]
1 | C[C@H](Nc1nccc(N2C(=O)OC[C@@H]2[C@H](C)F)n1)c1ncn2c1CCCc1cc(C(F)(F)F)ccc1-2 [Compound 13, (R)-4-((S)-1-fluoroethyl)-3-(2-(((S)-1-(8-trifluoromethyl-5,6-dihydro-4H-benzo[f]imidazo[1,5-a]azepin-3-yl)ethyl)amino)pyrimidin-4-yl)oxazolidin-2-one] | < 50 | 35 | < 50
2 | C[C@H](Nc1nccc(N2C(=O)OC[C@@H]2c2ccccc2)n1)c1ncn2c1CCc1cc(C(F)(F)F)ccc1-2 [Compound 20, (S)-4-phenyl-3-(2-(((S)-1-(7-trifluoromethyl-4,5-dihydroimidazo[1,5-a]quinolin-3-yl)ethyl)amino)pyrimidin-4-yl)oxazolidin-2-one] | < 50 | 7 | < 50
3 | C[C@H](Nc1nccc(N2C(=O)OC[C@@H]2[C@H](C)F)n1)c1ncn2c1CCc1cc(C(F)(F)F)ccc1-2 [Compound 5, (R)-4-((S)-1-fluoroethyl)-3-(2-(((S)-1-(7-trifluoromethyl-4,5-dihydroimidazo[1,5-a]quinolin-3-yl)ethyl)amino)pyrimidin-4-yl)oxazolidin-2-one] | < 50 | 16 | < 50
4 | C[C@H](Nc1ncc(F)c(N2C(=O)OC[C@@H]2[C@H](C)F)n1)c1ncn2c1CCc1cc(C(F)(F)F)ccc1-2 [Compound 6, (R)-3-(5-fluoro-2-(((S)-1-(7-trifluoromethyl-4,5-dihydroimidazo[1,5-a]quinolin-3-yl)ethyl)amino)pyrimidin-4-yl)-4-((S)-1-fluoroethyl)oxazolidin-2-one] | < 50 | 20 | < 50
5 | C[C@H](Nc1nccc(N2C(=O)OC[C@@H]2C2CC2)n1)c1ncn2c1COc1cc(Cl)ccc1-2 [Compound 22, (S)-3-(2-(((S)-1-(7-chloro-4H-benzo[b]imidazo[1,5-d][1,4]oxazin-3-yl)ethyl)amino)pyrimidin-4-yl)-4-cyclopropyloxazolidin-2-one] | 50 to 500 | 104 | < 50
6 | CC(C)[C@H]1C(C)OC(=O)N1c1ccnc(N[C@@H](C)c2ncn3c2CCc2cc(C(F)(F)F)ccc2-3)n1 (stereo partly drawn) [Compound 17, (4S)-4-isopropyl-5-methyl-3-(2-(((S)-1-(7-trifluoromethyl-4,5-dihydroimidazo[1,5-a]quinolin-3-yl)ethyl)amino)pyrimidin-4-yl)oxazolidin-2-one] | < 50 | 87 | < 50
7 | C[C@H](Nc1nccc(N2C(=O)OC[C@@H]2[C@H](C)F)n1)c1ncn2c1COc1cc(C3CC3)ccc1-2 [Compound 26, (R)-3-(2-(((S)-1-(7-cyclopropyl-4H-benzo[b]imidazo[1,5-d][1,4]oxazin-3-yl)ethyl)amino)pyrimidin-4-yl)-4-((S)-1-fluoroethyl)oxazolidin-2-one] | < 50 | 167 | < 50
8 | C[C@H](Nc1nccc(N2C(=O)OC[C@@H]2[C@H](C)F)n1)c1ncn2c1sc1cc(C(F)(F)F)ccc12 [Compound 8, (R)-4-((S)-1-fluoroethyl)-3-(2-(((S)-1-(6-trifluoromethylbenzo[d]imidazo[5,1-b]thiazol-3-yl)ethyl)amino)pyrimidin-4-yl)oxazolidin-2-one] | < 50 | 10 | < 50
9 | C[C@H](Nc1nccc(N2C(=O)OC[C@@H]2[C@H](C)F)n1)c1ncn2c1COc1cc(C(F)(F)F)ccc1-2 [Compound 2, (R)-4-((S)-1-fluoroethyl)-3-(2-(((S)-1-(7-trifluoromethyl-4H-benzo[b]imidazo[1,5-d][1,4]oxazin-3-yl)ethyl)amino)pyrimidin-4-yl)oxazolidin-2-one] | < 50 | 12 | < 50
